For experiment [1], the target named is LIM domain kinase 1 (Homo sapiens) (UniProt P53667). Kind of experiment: Selectivity interaction (LanthaScreen Eu Kinase Binding Assay) EUB0001632a LIMK1. The conditions noted are these: at 10 µM.
For experiment [2], the target named is T1, Serine/threonine-protein kinase Sgk1 (Homo sapiens) (UniProt O00141).
T1 sequence (whole entry): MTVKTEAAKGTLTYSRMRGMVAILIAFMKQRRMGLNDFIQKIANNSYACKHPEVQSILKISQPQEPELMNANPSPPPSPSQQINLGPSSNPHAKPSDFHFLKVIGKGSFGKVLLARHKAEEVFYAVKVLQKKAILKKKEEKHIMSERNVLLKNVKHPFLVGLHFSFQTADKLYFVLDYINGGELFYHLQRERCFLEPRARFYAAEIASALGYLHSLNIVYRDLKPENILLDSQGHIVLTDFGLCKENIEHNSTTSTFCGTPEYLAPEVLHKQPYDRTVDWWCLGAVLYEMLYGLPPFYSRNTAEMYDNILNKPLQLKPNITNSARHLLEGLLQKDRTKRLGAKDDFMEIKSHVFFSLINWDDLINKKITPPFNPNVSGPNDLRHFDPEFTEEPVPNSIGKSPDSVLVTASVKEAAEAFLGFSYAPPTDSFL
Description: Selectivity interaction (KinomeScan (DiscoverX)) EUB0001619a SGK1. The note with it: at 1 µM.

A further experiment deals with SRSF protein kinase 1 (Homo sapiens, UniProt Q96SB4). The note with it: at 10 µM.
The target of experiment [3] is T2, Dual specificity mitogen-activated protein kinase kinase 3 (Homo sapiens) (UniProt P46734).
T2 sequence (whole entry): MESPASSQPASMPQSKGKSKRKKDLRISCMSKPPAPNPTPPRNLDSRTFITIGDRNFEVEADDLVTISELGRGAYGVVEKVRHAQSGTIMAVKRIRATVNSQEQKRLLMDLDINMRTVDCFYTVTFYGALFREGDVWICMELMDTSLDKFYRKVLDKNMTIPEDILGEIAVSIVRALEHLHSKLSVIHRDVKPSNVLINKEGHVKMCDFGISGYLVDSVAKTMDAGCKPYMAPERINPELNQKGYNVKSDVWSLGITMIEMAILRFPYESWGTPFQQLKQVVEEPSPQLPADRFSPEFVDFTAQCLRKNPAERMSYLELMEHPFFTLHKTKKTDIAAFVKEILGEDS
Kind of experiment: Selectivity interaction (KinomeScan (DiscoverX)) EUB0000695a MAP2K3. The conditions noted are these: at 100 nM.

Experiment [4] addresses T3, Atypical kinase COQ8B, mitochondrial (Homo sapiens) (UniProt Q96D53).
T3 sequence (whole entry): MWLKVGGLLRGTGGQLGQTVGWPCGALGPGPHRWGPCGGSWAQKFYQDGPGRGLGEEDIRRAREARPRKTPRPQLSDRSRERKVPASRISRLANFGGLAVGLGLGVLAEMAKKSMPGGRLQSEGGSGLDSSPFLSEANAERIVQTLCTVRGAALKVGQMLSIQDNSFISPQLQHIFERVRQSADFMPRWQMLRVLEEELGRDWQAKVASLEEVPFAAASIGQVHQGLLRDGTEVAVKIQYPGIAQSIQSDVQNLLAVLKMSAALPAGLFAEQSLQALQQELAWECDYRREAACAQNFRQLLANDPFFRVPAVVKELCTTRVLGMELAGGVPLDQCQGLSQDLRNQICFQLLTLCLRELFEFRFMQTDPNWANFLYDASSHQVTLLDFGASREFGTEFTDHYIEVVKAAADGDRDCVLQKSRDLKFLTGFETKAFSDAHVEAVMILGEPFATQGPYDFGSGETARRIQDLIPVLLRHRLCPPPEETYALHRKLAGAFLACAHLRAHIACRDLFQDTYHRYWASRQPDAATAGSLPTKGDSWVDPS
The note with it: at 10 µM.

Experiment [5] has as its target Receptor tyrosine-protein kinase erbB-2 (Homo sapiens, UniProt P04626). The note with it: at 10 µM.
Experiment [6] has as its target Ribosomal protein S6 kinase alpha-4 (Homo sapiens) (UniProt O75676). Description: Selectivity interaction (KinaseProfiler screening (Millipore)) EUB0000601a RPS6KA4. The note with it: at 3 µM.
Experiment [7] concerns the target 5'-AMP-activated protein kinase catalytic subunit alpha-2 (Homo sapiens) (UniProt P54646). Kind of experiment: Selectivity interaction (ActivX KiNativ screen (kinase selectivity in THP-1 cell lysates)) EUB0000639a PRKAA2. The experiment is classed as subcellular. The note with it: lysate, at 0.04 µM.
Experiment [8] has as its target T4, Calcium/calmodulin-dependent protein kinase type IV (Homo sapiens) (UniProt Q16566).
T4 sequence (whole entry): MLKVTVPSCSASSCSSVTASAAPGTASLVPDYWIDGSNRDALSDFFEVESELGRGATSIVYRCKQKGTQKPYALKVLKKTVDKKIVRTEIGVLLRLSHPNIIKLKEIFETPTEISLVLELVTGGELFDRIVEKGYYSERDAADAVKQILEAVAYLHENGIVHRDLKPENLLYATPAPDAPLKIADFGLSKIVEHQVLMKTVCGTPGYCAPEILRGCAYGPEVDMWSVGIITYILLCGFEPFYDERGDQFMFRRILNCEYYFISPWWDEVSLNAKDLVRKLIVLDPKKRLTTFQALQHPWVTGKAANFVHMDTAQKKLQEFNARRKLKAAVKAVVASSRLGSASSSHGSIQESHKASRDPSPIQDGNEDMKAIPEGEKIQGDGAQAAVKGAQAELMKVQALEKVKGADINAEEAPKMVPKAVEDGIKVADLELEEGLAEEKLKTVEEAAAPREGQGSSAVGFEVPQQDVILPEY
Kind of experiment: Selectivity interaction (KinomeScan (DiscoverX)) EUB0000045b CAMK4.

Experiment [9] concerns the target Dual specificity protein kinase CLK4 (Homo sapiens, UniProt Q9HAZ1). Description: Selectivity interaction (KinomeScan (DiscoverX)) EUB0000045b CLK4.
Experiment [10] deals with Ribosomal protein S6 kinase alpha-1 (Homo sapiens, UniProt Q15418). Description: Selectivity interaction (KinomeScan (DiscoverX)) EUB0001049a RPS6KA1. The conditions noted are these: at 1 µM.
Experiment [11] concerns the target Serine/threonine-protein kinase PRP4 homolog (Homo sapiens) (UniProt Q13523). Description: Selectivity interaction (KinomeScan (DiscoverX)) EUB0001049a PRPF4B. The conditions noted are these: at 1 µM.
Experiment [12] deals with Bromodomain-containing protein 4 (Homo sapiens, UniProt O60885). Description: Selectivity interaction (Kinase panel (DSF assay)) EUB0001558a BRD4. Background: DSF heats the sample and reads unfolding from a dye or from intrinsic fluorescence.
For experiment [13], the target named is Serine/threonine-protein kinase SIK1 (Homo sapiens) (UniProt P57059). Kind of experiment: Selectivity interaction (KinomeScan (DiscoverX)) EUB0000229b SIK1. The conditions noted are these: at 10 µM.

From ChEMBL document CHEMBL5465560, “Selectivity Literature for EUbOPEN Chemogenomic Library” (2024) come the findings set out here.

Chain of Dual specificity protein kinase CLK4 (Q9HAZ1 whole entry, looked up): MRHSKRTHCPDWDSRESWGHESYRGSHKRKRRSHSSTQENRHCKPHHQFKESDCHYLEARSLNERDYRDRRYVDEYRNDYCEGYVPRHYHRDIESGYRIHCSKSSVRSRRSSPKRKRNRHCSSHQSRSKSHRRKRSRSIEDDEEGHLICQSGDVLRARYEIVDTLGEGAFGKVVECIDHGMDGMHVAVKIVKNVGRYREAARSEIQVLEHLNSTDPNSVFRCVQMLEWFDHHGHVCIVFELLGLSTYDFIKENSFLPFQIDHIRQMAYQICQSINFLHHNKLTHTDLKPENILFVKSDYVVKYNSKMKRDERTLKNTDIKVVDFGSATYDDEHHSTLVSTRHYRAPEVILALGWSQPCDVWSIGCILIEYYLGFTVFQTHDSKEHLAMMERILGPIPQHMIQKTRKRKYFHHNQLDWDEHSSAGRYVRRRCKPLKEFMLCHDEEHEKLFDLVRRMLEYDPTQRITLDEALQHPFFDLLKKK
Chain of Ribosomal protein S6 kinase alpha-1 (Q15418 whole entry): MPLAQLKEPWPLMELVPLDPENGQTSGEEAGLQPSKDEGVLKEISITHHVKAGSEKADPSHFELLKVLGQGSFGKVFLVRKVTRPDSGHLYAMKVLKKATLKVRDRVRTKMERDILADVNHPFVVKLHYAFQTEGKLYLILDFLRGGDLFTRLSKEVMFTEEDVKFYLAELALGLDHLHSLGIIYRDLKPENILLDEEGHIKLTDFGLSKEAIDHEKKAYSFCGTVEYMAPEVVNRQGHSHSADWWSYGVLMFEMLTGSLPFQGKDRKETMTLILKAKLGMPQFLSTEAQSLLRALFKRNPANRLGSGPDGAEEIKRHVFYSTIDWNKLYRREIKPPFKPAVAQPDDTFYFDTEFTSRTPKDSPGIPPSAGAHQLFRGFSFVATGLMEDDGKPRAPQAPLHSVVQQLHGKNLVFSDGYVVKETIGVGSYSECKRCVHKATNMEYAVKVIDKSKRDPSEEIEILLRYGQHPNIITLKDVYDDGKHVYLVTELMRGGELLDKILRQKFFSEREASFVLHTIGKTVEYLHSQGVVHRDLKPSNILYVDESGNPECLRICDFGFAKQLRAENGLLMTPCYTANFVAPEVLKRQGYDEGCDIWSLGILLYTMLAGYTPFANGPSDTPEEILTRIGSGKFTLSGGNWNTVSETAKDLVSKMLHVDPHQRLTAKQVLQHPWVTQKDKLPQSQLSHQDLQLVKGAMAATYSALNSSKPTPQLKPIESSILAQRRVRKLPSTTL
Chain of Ribosomal protein S6 kinase alpha-4 (Homo sapiens) (O75676 whole entry, looked up): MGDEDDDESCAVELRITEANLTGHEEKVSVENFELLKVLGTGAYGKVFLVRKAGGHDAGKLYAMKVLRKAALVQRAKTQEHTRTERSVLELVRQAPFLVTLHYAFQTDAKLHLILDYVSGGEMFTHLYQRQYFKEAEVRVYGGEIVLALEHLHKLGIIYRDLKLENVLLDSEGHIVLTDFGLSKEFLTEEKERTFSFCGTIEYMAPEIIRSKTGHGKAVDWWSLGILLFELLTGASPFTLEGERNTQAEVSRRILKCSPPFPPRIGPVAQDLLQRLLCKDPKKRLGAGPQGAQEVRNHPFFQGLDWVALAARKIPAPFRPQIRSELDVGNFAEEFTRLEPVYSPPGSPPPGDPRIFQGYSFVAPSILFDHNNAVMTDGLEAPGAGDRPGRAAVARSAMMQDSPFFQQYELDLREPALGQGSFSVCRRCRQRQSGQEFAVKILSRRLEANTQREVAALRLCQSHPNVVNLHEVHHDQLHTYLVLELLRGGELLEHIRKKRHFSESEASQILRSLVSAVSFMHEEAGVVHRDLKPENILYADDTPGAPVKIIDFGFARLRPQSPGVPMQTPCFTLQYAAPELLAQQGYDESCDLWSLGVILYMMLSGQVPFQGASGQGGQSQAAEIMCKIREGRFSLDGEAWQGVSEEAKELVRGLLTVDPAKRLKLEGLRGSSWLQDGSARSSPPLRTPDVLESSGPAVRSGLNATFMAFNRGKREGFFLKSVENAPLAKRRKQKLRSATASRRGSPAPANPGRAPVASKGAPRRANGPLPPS
Chain of Serine/threonine-protein kinase PRP4 homolog (Homo sapiens) (Q13523 whole entry): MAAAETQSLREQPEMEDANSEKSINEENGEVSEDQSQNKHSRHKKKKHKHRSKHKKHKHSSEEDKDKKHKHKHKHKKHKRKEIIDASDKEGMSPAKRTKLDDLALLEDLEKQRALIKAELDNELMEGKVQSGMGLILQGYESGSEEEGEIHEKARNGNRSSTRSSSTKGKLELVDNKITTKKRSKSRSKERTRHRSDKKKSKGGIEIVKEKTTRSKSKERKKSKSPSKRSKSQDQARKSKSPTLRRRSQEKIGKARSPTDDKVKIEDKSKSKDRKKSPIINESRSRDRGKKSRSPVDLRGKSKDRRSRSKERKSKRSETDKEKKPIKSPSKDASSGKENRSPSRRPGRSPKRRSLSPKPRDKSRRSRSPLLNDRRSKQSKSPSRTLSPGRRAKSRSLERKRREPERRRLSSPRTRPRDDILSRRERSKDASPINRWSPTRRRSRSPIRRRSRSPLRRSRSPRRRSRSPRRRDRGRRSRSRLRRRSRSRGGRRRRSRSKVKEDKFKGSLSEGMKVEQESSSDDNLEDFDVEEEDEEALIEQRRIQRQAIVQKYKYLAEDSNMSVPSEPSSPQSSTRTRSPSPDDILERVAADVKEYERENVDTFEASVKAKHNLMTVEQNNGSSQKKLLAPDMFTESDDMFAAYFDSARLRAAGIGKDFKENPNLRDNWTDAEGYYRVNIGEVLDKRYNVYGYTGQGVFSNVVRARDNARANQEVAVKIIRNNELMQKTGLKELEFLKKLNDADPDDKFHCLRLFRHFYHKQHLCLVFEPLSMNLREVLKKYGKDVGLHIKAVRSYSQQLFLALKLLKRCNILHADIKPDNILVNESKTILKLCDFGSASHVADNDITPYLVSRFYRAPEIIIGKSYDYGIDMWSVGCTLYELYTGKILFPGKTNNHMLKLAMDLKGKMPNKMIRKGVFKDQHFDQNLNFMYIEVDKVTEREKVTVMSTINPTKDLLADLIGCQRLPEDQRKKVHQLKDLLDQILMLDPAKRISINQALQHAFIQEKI
Chain of SRSF protein kinase 1 (Q96SB4 whole entry): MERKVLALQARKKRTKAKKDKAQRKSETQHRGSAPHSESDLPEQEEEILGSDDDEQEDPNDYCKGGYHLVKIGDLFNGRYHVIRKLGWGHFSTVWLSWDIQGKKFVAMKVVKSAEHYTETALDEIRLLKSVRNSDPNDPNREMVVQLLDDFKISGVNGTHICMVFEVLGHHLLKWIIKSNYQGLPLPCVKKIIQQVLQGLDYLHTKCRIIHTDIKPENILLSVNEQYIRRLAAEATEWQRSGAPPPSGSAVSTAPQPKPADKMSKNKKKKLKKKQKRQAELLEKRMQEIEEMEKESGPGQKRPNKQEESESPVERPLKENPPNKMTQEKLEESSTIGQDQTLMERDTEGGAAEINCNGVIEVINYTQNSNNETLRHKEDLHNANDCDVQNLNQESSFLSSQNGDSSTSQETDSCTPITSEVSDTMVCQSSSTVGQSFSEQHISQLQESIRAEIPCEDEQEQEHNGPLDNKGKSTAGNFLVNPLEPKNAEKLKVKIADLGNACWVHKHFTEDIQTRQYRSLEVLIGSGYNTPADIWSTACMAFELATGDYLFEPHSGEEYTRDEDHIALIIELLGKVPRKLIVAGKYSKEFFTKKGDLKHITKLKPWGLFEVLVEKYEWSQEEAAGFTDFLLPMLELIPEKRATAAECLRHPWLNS
Chain of Serine/threonine-protein kinase SIK1 (Homo sapiens) (P57059 whole entry): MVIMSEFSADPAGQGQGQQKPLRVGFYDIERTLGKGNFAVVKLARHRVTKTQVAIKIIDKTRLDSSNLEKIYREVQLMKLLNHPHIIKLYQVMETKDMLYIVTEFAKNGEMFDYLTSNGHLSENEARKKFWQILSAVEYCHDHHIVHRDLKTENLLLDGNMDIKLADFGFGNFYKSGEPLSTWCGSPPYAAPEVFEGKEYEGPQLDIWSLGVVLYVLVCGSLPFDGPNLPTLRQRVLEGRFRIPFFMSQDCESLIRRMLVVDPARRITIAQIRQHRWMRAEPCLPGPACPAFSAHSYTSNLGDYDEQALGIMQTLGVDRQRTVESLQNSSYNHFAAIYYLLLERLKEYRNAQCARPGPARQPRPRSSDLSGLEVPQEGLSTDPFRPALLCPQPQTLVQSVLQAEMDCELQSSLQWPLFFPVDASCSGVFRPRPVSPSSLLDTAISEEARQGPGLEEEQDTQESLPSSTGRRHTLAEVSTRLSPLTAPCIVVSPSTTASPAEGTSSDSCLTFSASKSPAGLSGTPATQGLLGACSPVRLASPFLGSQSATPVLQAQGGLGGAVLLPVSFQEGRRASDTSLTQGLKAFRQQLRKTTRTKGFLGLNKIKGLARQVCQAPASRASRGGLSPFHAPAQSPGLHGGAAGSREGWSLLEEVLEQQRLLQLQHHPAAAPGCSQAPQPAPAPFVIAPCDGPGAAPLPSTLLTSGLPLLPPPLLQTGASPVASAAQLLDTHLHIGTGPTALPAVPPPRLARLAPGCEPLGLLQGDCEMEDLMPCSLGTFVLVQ
Chain of 5'-AMP-activated protein kinase catalytic subunit alpha-2 (Homo sapiens) (P54646 whole entry, looked up): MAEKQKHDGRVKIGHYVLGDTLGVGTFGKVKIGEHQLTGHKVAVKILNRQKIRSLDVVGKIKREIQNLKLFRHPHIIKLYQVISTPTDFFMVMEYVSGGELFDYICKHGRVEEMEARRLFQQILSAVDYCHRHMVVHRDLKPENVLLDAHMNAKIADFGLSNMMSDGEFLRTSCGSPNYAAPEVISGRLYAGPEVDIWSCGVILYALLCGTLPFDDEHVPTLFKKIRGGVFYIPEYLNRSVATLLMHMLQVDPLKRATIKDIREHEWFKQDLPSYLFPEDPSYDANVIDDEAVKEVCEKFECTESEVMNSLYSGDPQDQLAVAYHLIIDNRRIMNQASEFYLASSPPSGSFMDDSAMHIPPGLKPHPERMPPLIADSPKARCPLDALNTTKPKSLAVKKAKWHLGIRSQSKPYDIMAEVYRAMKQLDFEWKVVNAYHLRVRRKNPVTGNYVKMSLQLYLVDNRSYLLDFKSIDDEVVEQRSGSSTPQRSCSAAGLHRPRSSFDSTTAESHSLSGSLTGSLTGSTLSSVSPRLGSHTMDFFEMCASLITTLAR

Take `Cn1cc(-n2cnc3c(NCc4nc5cc(Cl)c(Cl)cc5[nH]4)nc(N4CCOCC4)nc32)cn1`: in experiment [1], the % of inhibition is -36.5%.
With `N#Cc1cccc(-c2c[nH]c3ncnc(N4CCOCC4)c23)c1`, in experiment [2], the % of control stood at 65%.
`CCN(CC)CCCCNc1ncc2cc(-c3cc(OC)cc(OC)c3)c(NC(=O)NC(C)(C)C)nc2n1`: the % of control on SRSF protein kinase 1 is 100%.
In [3], `Cc1cc(F)c(C(=O)Nc2cccc(-c3nncn3C(C)C)n2)cc1-n1cnc(C2CC2)c1` yielded a % of control of 89%.
For the compound `Cc1cc([C@@H](C)Nc2ccccc2C(=O)O)c2nc(N3CCOCC3)cc(=O)n2c1` [AZD-6482], the % of control was 79% in experiment [4] and 100% in experiment [5].
For `CCc1cc(Nc2nccc(-c3c(-c4ccc(OC)c(C(=O)Nc5c(F)cccc5F)c4)nc4ccccn34)n2)c(OC)cc1N1CCC(N2CCN(S(C)(=O)=O)CC2)CC1`, the % of inhibition in [6] was 55%.
`CC[C@@H]1[C@H](F)C(=O)N[C@@H]1COc1nccc2cc(C(N)=O)c(OC)cc12` [ZIMLOVISERTIB]: the % of inhibition in [7] is -11.5%.
Consider `C=CC(=O)Nc1cc(-n2c(=O)ccc3cnc4ccc(-c5ccc(NS(C)(=O)=O)cc5)cc4c32)ccc1C`, for which the % of control came out at 100% in experiment [8] (at 1 µM), 72% in [8] (at 10 µM), 99% in experiment [9] (at 1 µM) and 85% in experiment [9] (at 10 µM).
Take `COc1cc(Nc2nc(C)cc(-c3cnn4nc(OC)ccc34)n2)cc(C(F)(F)F)c1`: the % of control in experiment [10] and in [11] was 100% in each case.
As for `CC(C)(O)[C@H](F)CN1Cc2cc(NC(=O)c3cnn4cccnc34)c(N3CCOCC3)cc2C1=O`, the dTM in [12] was determined as 0.4 K.
`COc1cc(N(C)c2ccnc3ccc(C(F)(F)F)cc23)cc(OC)c1OC` displayed a % binding in experiment [13] of 96%.
